The assay relates to B. pseudomallei Bp82. Nature of the assay: microbe, parasite or virus in culture. Format: cell-based. Particulars: Burkholderia pseudomallei, BP82, read-out: Minimum inhibitory concentration, B. pseudomallei Bp82.

Molecules are shown by their SMILES. In brackets after ≈: the same amount, converted by molar mass.

For `CN(CCN1CCN(C(=O)N[C@@H](C(=O)N[C@H]2Cc3ccc(F)c(C(=O)O)c3OB2O)c2cc(F)c(O)c(O)c2Cl)C(=O)C1=O)Cc1cncc(O)c1` [Example 208, (R)-3-((R)-2-(2-chloro-5-fluoro-3,4-dihydroxyphenyl)-2-(4-(2-(((5-hydroxypyridin-3-yl)methyl)(methyl)amino)ethyl)-2,3-dioxopiperazine-1-carboxamido)acetamido)-7-fluoro-2-hydroxy-3,4-dihydro-2H-benzo[e][1,2]oxaborinine-8-carboxylic acid], the MIC was less than 1 µg/mL.
The value for `O=C(NCCCN1CCN(C(=O)N[C@@H](C(=O)N[C@H]2Cc3ccc(F)c(C(=O)O)c3OB2O)c2cc(F)c(O)c(O)c2Cl)C(=O)C1=O)c1cccnc1` [Example 210, (R)-3-((R)-2-(2-chloro-5-fluoro-3,4-dihydroxyphenyl)-2-(4-(3-(nicotinamido)propyl)-2,3-dioxopiperazine-1-carboxamido)acetamido)-7-fluoro-2-hydroxy-3,4-dihydro-2H-benzo[e][1,2]oxaborinine-8-carboxylic acid] was less than 1 µg/mL; that for `O=C(NCCCN1CCN(C(=O)NC(C(=O)N[C@H]2Cc3ccc(F)c(C(=O)O)c3OB2O)c2cc(F)c(O)c(O)c2Cl)C(=O)C1=O)c1nccs1` (stereo partly drawn) [Example 211, (3R)-3-(2-(2-chloro-5-fluoro-3,4-dihydroxyphenyl)-2-(2,3-dioxo-4-(3-(thiazole-2-carboxamido)propyl)piperazine-1-carboxamido)acetamido)-7-fluoro-2-hydroxy-3,4-dihydro-2H-benzo[e][1,2]oxaborinine-8-carboxylic acid] was less than 1 µg/mL.
The figure for `O=C(O)c1c(F)ccc2c1OB(O)[C@@H](NC(=O)C(NC(=O)N1CCN(CCCNC(=O)[C@@H]3CCCN3)C(=O)C1=O)c1cc(F)c(O)c(O)c1Cl)C2` (stereo partly drawn) [Example 212, (3R)-3-(2-(2-chloro-5-fluoro-3,4-dihydroxyphenyl)-2-(2,3-dioxo-4-(3-((S)-pyrrolidine-2-carboxamido)propyl)piperazine-1-carboxamido)acetamido)-7-fluoro-2-hydroxy-3,4-dihydro-2H-benzo[e][1,2]oxaborinine-8-carboxylic acid] is less than 1 µg/mL; for `O=C(NCCCN1CCN(C(=O)NC(C(=O)N[C@H]2Cc3ccc(F)c(C(=O)O)c3OB2O)c2cc(F)c(O)c(O)c2Cl)C(=O)C1=O)Nc1cccnc1` (stereo partly drawn) [Example 213, (3R)-3-(2-(2-chloro-5-fluoro-3,4-dihydroxyphenyl)-2-(2,3-dioxo-4-(3-(3-(pyridin-3-yl)ureido)propyl)piperazine-1-carboxamido)acetamido)-7-fluoro-2-hydroxy-3,4-dihydro-2H-benzo[e][1,2]oxaborinine-8-carboxylic acid] it is less than 1 µg/mL; for `O=C(NCCN1CCN(C(=O)NC(C(=O)N[C@H]2Cc3ccc(F)c(C(=O)O)c3OB2O)c2cc(F)c(O)c(O)c2Cl)C(=O)C1=O)c1cccnc1` (stereo partly drawn) [Example 217, (3R)-3-(2-(2-chloro-5-fluoro-3,4-dihydroxyphenyl)-2-(4-(2-(nicotinamido)ethyl)-2,3-dioxopiperazine-1-carboxamido)acetamido)-7-fluoro-2-hydroxy-3,4-dihydro-2H-benzo[e][1,2]oxaborinine-8-carboxylic acid] it is 8 to 16 µg/mL (≈ 10.9 to 21.9 µM).
Regarding `O=C(NCCN1CCN(C(=O)N[C@@H](C(=O)N[C@H]2Cc3ccc(F)c(C(=O)O)c3OB2O)c2cc(F)c(O)c(O)c2Cl)C(=O)C1=O)Nc1ccncc1` [Example 221, (R)-3-((R)-2-(2-chloro-5-fluoro-3,4-dihydroxyphenyl)-2-(2,3-dioxo-4-(2-(3-(pyridin-4-yl)ureido)ethyl)piperazine-1-carboxamido)acetamido)-7-fluoro-2-hydroxy-3,4-dihydro-2H-benzo[e][1,2]oxaborinine-8-carboxylic acid], the MIC was less than 1 µg/mL.
The value for `O=C(O)c1c(F)ccc2c1OB(O)[C@@H](NC(=O)[C@H](NC(=O)N1CCN(CCNC(=O)[C@@H]3CCCN3)C(=O)C1=O)c1cc(F)c(O)c(O)c1Cl)C2` [Example 229, (R)-3-((R)-2-(2-chloro-5-fluoro-3,4-dihydroxyphenyl)-2-(2,3-dioxo-4-(2-((S)-pyrrolidine-2-carboxamido)ethyl)piperazine-1-carboxamido)acetamido)-7-fluoro-2-hydroxy-3,4-dihydro-2H-benzo[e][1,2]oxaborinine-8-carboxylic acid] was less than 1 µg/mL; that for `O=C(NCCN1CCN(C(=O)NC(C(=O)N[C@H]2Cc3ccc(F)c(C(=O)O)c3OB2O)c2cc(F)c(O)c(O)c2Cl)C1=O)c1ccncc1` (stereo partly drawn) [Example 245, (3R)-3-(2-(2-chloro-5-fluoro-3,4-dihydroxyphenyl)-2-(3-(2-(isonicotinamido)ethyl)-2-oxoimidazolidine-1-carboxamido)acetamido)-7-fluoro-2-hydroxy-3,4-dihydro-2H-benzo[e][1,2]oxaborinine-8-carboxylic acid] was less than 1 µg/mL.
The value for `O=C(NCCN1CCN(C(=O)NC(C(=O)N[C@H]2Cc3ccc(F)c(C(=O)O)c3OB2O)c2cc(F)c(O)c(O)c2Cl)C1=O)Nc1ccncc1` (stereo partly drawn) [Example 250, (3R)-3-(2-(2-chloro-5-fluoro-3,4-dihydroxyphenyl)-2-(2-oxo-3-(2-(3-(pyridin-4-yl)ureido)ethyl)imidazolidine-1-carboxamido)acetamido)-7-fluoro-2-hydroxy-3,4-dihydro-2H-benzo[e][1,2]oxaborinine-8-carboxylic acid] was less than 1 µg/mL.
As for `O=C(NCCN1CCN(C(=O)NC(C(=O)N[C@H]2Cc3ccc(F)c(C(=O)O)c3OB2O)c2cc(F)c(O)c(O)c2Cl)C1=O)Nc1cccnc1` (stereo partly drawn) [Example 251, (3R)-3-(2-(2-chloro-5-fluoro-3,4-dihydroxyphenyl)-2-(2-oxo-3-(2-(3-(pyridin-3-yl)ureido)ethyl)imidazolidine-1-carboxamido)acetamido)-7-fluoro-2-hydroxy-3,4-dihydro-2H-benzo[e][1,2]oxaborinine-8-carboxylic acid], the MIC was less than 1 µg/mL.
The figure for `O=C(NCCCN1CCN(C(=O)NC(C(=O)N[C@H]2Cc3ccc(F)c(C(=O)O)c3OB2O)c2cc(F)c(O)c(O)c2Cl)C1=O)c1ccncc1` (stereo partly drawn) [Example 256, (3R)-3-(2-(2-chloro-5-fluoro-3,4-dihydroxyphenyl)-2-(3-(3-(isonicotinamido)propyl)-2-oxoimidazolidine-1-carboxamido)acetamido)-7-fluoro-2-hydroxy-3,4-dihydro-2H-benzo[e][1,2]oxaborinine-8-carboxylic acid] is less than 1 µg/mL; for `O=C(NCCCN1CCN(C(=O)NC(C(=O)N[C@H]2Cc3ccc(F)c(C(=O)O)c3OB2O)c2cc(F)c(O)c(O)c2Cl)C1=O)c1nccs1` (stereo partly drawn) [Example 257, (3R)-3-(2-(2-chloro-5-fluoro-3,4-dihydroxyphenyl)-2-(2-oxo-3-(3-(thiazole-2-carboxamido)propyl)imidazolidine-1-carboxamido)acetamido)-7-fluoro-2-hydroxy-3,4-dihydro-2H-benzo[e][1,2]oxaborinine-8-carboxylic acid] it is less than 1 µg/mL.
Regarding `O=C(NCCS(=O)(=O)N1CCN(C(=O)NC(C(=O)N[C@H]2Cc3ccc(F)c(C(=O)O)c3OB2O)c2cc(F)c(O)c(O)c2Cl)C1=O)c1cccnc1` (stereo partly drawn) [Example 262, (3R)-3-(2-(2-chloro-5-fluoro-3,4-dihydroxyphenyl)-2-(3-((2-(nicotinamido)ethyl)sulfonyl)-2-oxoimidazolidine-1-carboxamido)acetamido)-7-fluoro-2-hydroxy-3,4-dihydro-2H-benzo[e][1,2]oxaborinine-8-carboxylic acid], the MIC was less than 1 µg/mL.
The figure for `O=C(NCCS(=O)(=O)N1CCN(C(=O)N[C@@H](C(=O)N[C@H]2Cc3ccc(F)c(C(=O)O)c3OB2O)c2cc(F)c(O)c(O)c2Cl)C1=O)c1nccs1` [Example 264, (R)-3-((R)-2-(2-chloro-5-fluoro-3,4-dihydroxyphenyl)-2-(2-oxo-3-((2-(thiazole-2-carboxamido)ethyl)sulfonyl)imidazolidine-1-carboxamido)acetamido)-7-fluoro-2-hydroxy-3,4-dihydro-2H-benzo[e][1,2]oxaborinine-8-carboxylic acid] is less than 1 µg/mL; for `O=C(O)c1c(F)ccc2c1OB(O)[C@@H](NC(=O)C(NC(=O)N1CCN(S(=O)(=O)CCNC(=O)[C@@H]3CCCN3)C1=O)c1cc(F)c(O)c(O)c1Cl)C2` (stereo partly drawn) [Example 265, (3R)-3-(2-(2-chloro-5-fluoro-3,4-dihydroxyphenyl)-2-(2-oxo-3-((2-((S)-pyrrolidine-2-carboxamido)ethyl)sulfonyl)imidazolidine-1-carboxamido)acetamido)-7-fluoro-2-hydroxy-3,4-dihydro-2H-benzo[e][1,2]oxaborinine-8-carboxylic acid] it is less than 1 µg/mL; for `O=C(O)c1c(F)ccc2c1OB(O)[C@@H](NC(=O)C(NC(=O)N1CCN(S(=O)(=O)CCCNC(=O)[C@@H]3CCCN3)C1=O)c1cc(F)c(O)c(O)c1Cl)C2` (stereo partly drawn) [Example 275, (3R)-3-(2-(2-chloro-5-fluoro-3,4-dihydroxyphenyl)-2-(2-oxo-3-((3-((S)-pyrrolidine-2-carboxamido)propyl)sulfonyl)imidazolidine-1-carboxamido)acetamido)-7-fluoro-2-hydroxy-3,4-dihydro-2H-benzo[e][1,2]oxaborinine-8-carboxylic acid] it is less than 1 µg/mL.
